Source: patent US11129870B2, “Compositions and methods for uncoupling TrkB receptor from PLC gamma 1 for the treatment of epilepsy and anxiety-like disorder” (DUKE UNIVERSITY, priority 2010, dated 2021)
Where no end group is shown, it is not given here. [ ]: non-standard residue; d: D form. pY = N[C@@H](Cc1ccc(OP(=O)(O)O)cc1)C(=O)O

Columns and labels:
PLCγ1 [1] = assay: SE-induced activation of PLCγ1 in hippocampus, peptide given i.v. after SE; assay type: in vivo, mouse; conditions: 6 hr later
Procedure: Surgery and microinfusion studies provided in Examples 10-14 were performed as described here. Surgery and microinfusion of KA into right amygdala of adult mice was performed as previously described (Liu, G. et al., (2013) Neuron 79:31-38). Briefly, mice were anesthetized with pentobarbital (60 mg/kg, intraperitoneally [i.p.]) and placed in a stereotaxic frame. A guide cannula was stereotactically placed above the right amygdala (coordinates from bregma: AP=−1.2 mm; ML=3.0 mm). A bipolar electrode was placed in the left dorsal hippocampus (coordinates from bregma: AP=−2.0 mm; ML=−1.6 mm; DV=−1.5 mm). A ground electrode connected to a screw was placed in the skull above the cerebellum. After a postoperative recovery period of 7 days, the animal was gently restrained and an infusion cannula was inserted into the right amygdala through the guide cannula at the depth of 3.7 mm below dura. […]
(§1) Animals were anesthetized with pentobarbital (200 mg/kg i.p.) and decapitated, and the head was quickly immersed in liquid nitrogen for 4 s to rapidly cool the brain. […] The immunoreactivity of individual bands on western blots was measured by ImageJ software (National Institutes of Health) and normalized to PLCγ1, Akt or ERK contents. Equivalent protein loading among samples was monitored by β-actin (1:10000; Sigma) levels. […]

PLCγ1 [2] = assay: p-PLCγ1 in brain of naive mice after intravenous peptide (western blot); assay type: in vivo, mouse
Procedure: An important issue with respect to usefulness of Tat-pTRKBY816 is whether, following peripheral administration, the peptide can inhibit PLCγ1 activation in the brain in vivo. To test this idea, adult C57/B6 mice underwent tail vein injection of vehicle (normal saline [NS]) or Tat-scrambled-pTrkY816 or Tat-pTrkBY816 (10 mg/kg, 2 mice per group). Animals were sacrificed 3 hours post administration, the hippocampus dissected and homogenate prepared for western blotting. […] These findings support the assertion that the peptide passes through the blood brain barrier and inhibits PLCγ1 activation in vivo.
as §1, with “brain. The hippocampi were rapidly dissected on ice and homogenized in RIPA buffer, incubated on ice for 15 min, and centrifuged at 200,000×g for 10 min at 4° C. The supernatant was collected and stored at −80° C. until further analysis.” for “brain.”

YGRKKRRQRRR-LQNLAKASPVpYLDI (YGRKKRRQRRRLQNLAKASPV[pY]LDI) [pY816]
inhibition of SE-induced activation of PLCγ1 (p-PLCγ1 pY783 to PLCγ1 ratio) (PLCγ1 [1]; 10 mg/kg i.v. immediately after diazepam): ~75%
inhibition of SE-induced activation of PLCγ1 (p-PLCγ1 pY783 to PLCγ1 ratio) (PLCγ1 [1]; 20 mg/kg i.v. immediately after diazepam): ~75%
reduction of p-PLCγ1 (pY783) immunoreactivity (PLCγ1 [2]; 10 mg/kg i.v., 3 hr, hippocampal lysates, in comparison to Scr): ~50%
phospho-PLCγ1 in brain homogenate (PLCγ1 [2]; 10 mg/kg tail vein, 3 hours post administration, vs saline or scrambled peptide): reduced the phosphor-PLCγ1
